The structures appear in SMILES notation. Structures can show the parent of a compound that is named as a salt.

Data set [1] is described as follows: Measurement of partition coefficient (logP) by UV-Vis spectrophotometry. The data set is classed as physicochemical. Conditions: 1-octanol / phosphate buffer 0.1 M pH 7.4; mean of triplicate determinations. The text has this:
Lipophilicity is a relevant property to estimate the bioavailability and dispersion of a molecule in non-aqueous media (oils, fats, and emulsions) and in the cellular environment. Generally, it can be related to logP, a parameter that evaluates the partition of a molecule between two immiscible solvents (water and 1-octanol). […] As already reported in the literature, the lipophilic character increased from hydroxytyrosol 6 to homovanillyl alcohol 5 and tyrosol 4.
The logP value of all compounds was determined as reported in the literature by UV-Vis spectrophotometry. The partition coefficient (logP) was calculated according to the following relationship: logP = logAx/(A0 − Ax). A0 was the maximum of absorbance of a solution 0.15 mM of each compound dissolved in 1-octanol; Ax is the maximum of absorbance of the organic solution containing the compound after separation from the phosphate buffer (0.1 M, pH 7.4) solution. A solution of 1-octanol saturated with the buffer was used as a blank.

A short description of data set [2]: ABTS assay (TEAC). The settings on record: for Trolox Equivalent Antioxidant Capacity (TEAC): ethanol, room temperature, 734 nm, 2 min, extrapolated at 10 μM, Trolox mM equivalent. The protocol:
The antioxidant capacity of compounds 1–12 was measured according to the method of Pellegrini et al. but working at room temperature. 6-Hydroxy-2,5,7,8-tetramethylchroman-2-carboxylic acid (Trolox) was used as reference. The analyses were carried out in ethanol (0.2% of water) at room temperature and the absorbance was measured at λ = 734 nm. Each sample (1.0 mL) of ABTS^+• was obtained from the aqueous mother solution by dilution with ethanol to an absorbance of […], and 10 μL of the ethanol solution of the antioxidant was added. All compounds were analyzed at four different final concentrations ranging from 1 to 10 μM. The absorbance was measured after 2 min. Four measurements were recorded for each concentration. Each time blanks of pure solvent were run. The standard deviations of data were all below 5%. The dose-response curves were expressed as the percentage of absorbance decrease (ABTS inhibition expressed as percentage) against the amount of antioxidant concentration. Linear regression was conducted using GraphPad Prism 4.01 (2004) software. The antioxidant capacities were extrapolated at 10 μM concentration and reported as Trolox Equivalent Antioxidant Capacity (TEAC), defined as the concentration (mmol/L) of Trolox having the antioxidant capacity equivalent to that of a 1.0 mmol/L solution of the substance under investigation. Results are expressed as mean ± standard deviation. Statistical analyses were performed using the Student’s t test. The level of significance was p < 0.05 for all data.

For data set [3], the system named is L6 myoblasts. Description: Intracellular ROS determination (DCF assay) in L6 myoblasts. It counts as cell-based, rat. Conditions: for activity at 10 µM: Rattus norvegicus, L6, 10 min, L-6 cells, compound 10 µM, 200 µM cumene hydroperoxide, ΔF/10 min, read-out: Intracellular ROS, DCF fluorescence (Mean) relative to cumene hydroperoxide alone (100%); for antioxidant activity in cells, DCF assay: L6 and THP-1 cells. The protocol: (§1) The fluorometric DCF assay is a useful technique to evaluate the antioxidant activity of compounds in cells exposed to oxidative stress induced by cumene hydroperoxide. The analyses were carried out in two different cell lines particularly sensitive to radical production: L6 myoblasts from rat skeletal muscle and THP-1 human leukemic monocytes.
(§2) The antioxidant activity of each compound was measured by a standard intracellular fluorescent probe (DCF) assay using L6 myoblasts and THP-1 monocytes exposed to oxidative stress by the addition of cumene hydroperoxide, a radical generator. Fluorescence was measured over a 10-min period, and the ability of the compounds to eliminate the increased ROS production was determined. For L6 myoblasts, growing attached to the bottom of the flask, the medium was discarded and cells were washed twice with 5 mL phosphate buffered saline (PBS) containing 5.0 mM glucose (PBS-glucose) at 37 °C. Cells were gently scraped off with PBS-glucose at 37 °C and centrifuged at 1200 rpm for 5 min (approximately 100× g). The supernatant was discarded and the pellet resuspended in PBS-glucose. Incubation with the probe DCFH2-DA at a final concentration of 10 µM (from a stock solution of 10 mM in DMSO) was carried out for 30 min at 37 °C in the dark. At the end of the incubation, cells were washed twice, centrifuged at 1200 rpm for 5 min, and the final cell pellet was resuspended in PBS-glucose. Before the experiment was initiated, cells were allowed to recover for 1 h at room temperature in the dark. The THP-1 monocytes, growing in suspension, were centrifuged at 1200 rpm for 10 min. The supernatant was discarded, and cells were washed twice with 5 mL PBS-glucose at 37 °C to remove the serum. The pellet was successively resuspended in PBS-glucose, and the probe DCFH2-DA was added at 10 µM final concentration. From that point onwards, the protocols for the two cell types were identical. Intracellular fluorescence was measured at 37 °C using a Perkin Elmer VICTOR 3V spectrofluorometer (excitation at λ = 498 nm and emission at λ = 530 nm). […] Cells were incubated with compounds at the final designated concentration for 10 min at 37 °C before addition of the radical generator. The decrease in the intracellular DCF fluorescence relative to the fluorescence change induced by 200 μM cumene hydroperoxide alone (100%), reported as ΔF/10 min, determined the antioxidant activities. Data are reported as the mean ± standard deviation of at least four different experiments carried out in triplicate. One-way ANOVA test (non-parametric) and Bonferroni post-test (comparing all pairs of columns) were used for the statistical analyses.

For data set [4], the system named is THP-1 human leukemic monocytes. The data set can be described thus: Intracellular ROS determination (DCF assay) in THP-1 monocytes. The settings on record: 10 min, THP-1 cells, compound 10 µM, 200 µM cumene hydroperoxide, ΔF/10 min, read-out: Intracellular ROS, DCF fluorescence (Mean) relative to cumene hydroperoxide alone (100%). It counts as cell-based. Here is the method:
as §1, §2

The subject of data set [5] is L6 cells. The data set can be described thus: Proliferation curves (cell counts) in L6 cells. It counts as cell-based, rat. The settings on record: 10 µM, absence or presence of cumene hydroperoxide 40 µM. Here is the method:
(§3) L6 cells were seeded in 60 × 15 mm Petri dishes in 4 mL of the complete growth medium at a density of approximately 10^5 cells/well. The following day, the cells were exposed to the selected compounds 1, 5–7, 11, and 12 at a final concentration of 10 µM in the absence and presence of cumene hydroperoxide (40 µM). Cell counts using a Neubauer chamber were made every 24 h up to confluence. Each time the L6 myoblasts had to be counted, they first underwent a mild trypsinization. THP-1 cells were seeded in 24-well plates in 1 mL of the growth medium. After 24 h, the cells were exposed to 10 µM of the same compounds in the absence and presence of cumene hydroperoxide (200 µM) and incubated for an additional 24 h. Cell counts using a Neubauer chamber were made every 24 h up to confluence. The results are given as the mean ± standard deviation of two different experiments.

Data set [6] relates to THP-1 cells. Description: Proliferation curves (cell counts) in THP-1 cells. The data set is classed as cell-based, human. Conditions: 10 µM, absence or presence of cumene hydroperoxide 200 µM. The protocol:
as §3

`O=C(OCCc1ccc(O)cc1)C(F)(F)F` [Compound 10, 4-Hydroxyphenethyl trifluoroacetate]: in data set [1], the logP (commonly the decadic logarithm of the partition coefficient of the neutral form, usually between octanol and water) is 1.98 ± 0.14. Moreover, in data set [2], the “Trolox Equivalent Antioxidant Capacity (TEAC)” value is recorded as 0.36 mM. Further, the activity at 10 µM in data set [3] came out at 21%; in data set [4], 20%.
As for `O=C(OCCc1ccccc1)C(F)(F)F` [Compound 7, Phenethyl trifluoroacetate], the logP in data set [1] amounted to 2.38 ± 0.18. Further, in data set [2], the “antiradical activity / antioxidant capacity in ABTS assay” value is given as “very low antiradical activity” and the “Trolox Equivalent Antioxidant Capacity (TEAC)” value is 0.00 mM. Besides, in data set [3], the “antioxidant activity in cells, DCF assay” value is “good antioxidant activity” and the activity at 10 µM amounted to 29%. Moreover, the activity at 10 µM in data set [4] was 30%.
For the compound `OCCc1cccc(O)c1` [Compound 3, 3-hydroxyphenethyl alcohol], the logP in data set [1] is 0.66 ± 0.06. In data set [2], the “Trolox Equivalent Antioxidant Capacity (TEAC)” value is 0.43 mM. Moreover, the values for the activity at 10 µM in data set [3] and in data set [4] were 25% and 23%, respectively.
With `OCCc1ccccc1` [Compound 1, phenethyl alcohol], in data set [2], the “antiradical activity / antioxidant capacity in ABTS assay” value was “very low antiradical activity” and the “Trolox Equivalent Antioxidant Capacity (TEAC)” value was 0.00 mM. Besides, in data set [3], the “antioxidant activity in cells, DCF assay” value is reported as “good antioxidant activity” and the activity at 10 µM came to 31%. In data set [4], the activity at 10 µM came out at 33%.
Turning to `OCCc1ccc(O)c(O)c1` [Compound 6, 3,4-dihydroxyphenethyl alcohol], in data set [1], the log partition coefficient (logP) worked out at 0.1 ± 0.01. Further, in data set [2], the “antiradical activity / antioxidant capacity in ABTS assay” value is “good antioxidant capacity” and the “Trolox Equivalent Antioxidant Capacity (TEAC)” value is on record as 0.68 mM. In data set [3], the activity at 10 µM was 7%. The activity at 10 µM in data set [4] was 14%.
The corresponding values for `O=C(OCCc1ccccc1O)C(F)(F)F` [Compound 8, 2-Hydroxyphenethyl trifluoroacetate] are 2.05 ± 0.16, “good antioxidant capacity”, 0.75 mM, 26% and 25%.
`OCCc1ccccc1O` [Compound 2, 2-hydroxyphenethyl alcohol] gave a logP in data set [1] of 0.72 ± 0.07. Besides, the “antiradical activity / antioxidant capacity in ABTS assay” value in data set [2] is “good antioxidant capacity”. Besides, the “Trolox Equivalent Antioxidant Capacity (TEAC)” value in data set [2] is 0.69 mM. Also, the activity at 10 µM in data set [3] came out at 23%; in data set [4] it was 25%.
The compound `OCCc1ccc(O)cc1` [Compound 4, 4-hydroxyphenethyl alcohol] returned a logP in data set [1] of 0.69 ± 0.05. Moreover, the “Trolox Equivalent Antioxidant Capacity (TEAC)” value in data set [2] is 0.45 mM. Besides, the figures for the activity at 10 µM in data set [3] and in data set [4] were 41% and 25%, respectively.
`COc1cc(CCOC(=O)C(F)(F)F)ccc1O` [Compound 11, 4-Hydroxy-3-methoxyphenethyl trifluoroacetate] registered a logP in data set [1] of 1.9 ± 0.12. Further, in data set [2], the “antiradical activity / antioxidant capacity in ABTS assay” value is “good antioxidant capacity” and the “Trolox Equivalent Antioxidant Capacity (TEAC)” value was 0.87 mM. Further, in data set [3], the activity at 10 µM was found to be 20%. In addition, the activity at 10 µM in data set [4] amounted to 23%.
For `O=C(OCCc1ccc(O)c(O)c1)C(F)(F)F` [Compound 12, 3,4-Dihydroxyphenethyl trifluoroacetate] the same measures were 1.62 ± 0.12, “good antioxidant capacity”, 0.77 mM, 4% and 16%.
For `COc1cc(CCO)ccc1O` [Compound 5, 4-hydroxy-3-methoxyphenethyl alcohol], in data set [1], the logP is 0.46 ± 0.02. Moreover, in data set [2], the “antiradical activity / antioxidant capacity in ABTS assay” value is given as “good antioxidant capacity”. For the same compound, the “Trolox Equivalent Antioxidant Capacity (TEAC)” value in data set [2] is given as 0.81 mM. The activity at 10 µM in data set [3] stood at 22%; in data set [4], 21%. The “effect on cell proliferation (cell counts)” value in data set [5] was “promoted L6 myoblast proliferation”; in data set [6], “inhibited THP-1 tumor cell growth”.
As for `Cc1c(C)c2c(c(C)c1O)CCC(C)(C(=O)O)O2` (stereo not drawn) [Trolox, 6-Hydroxy-2,5,7,8-tetramethylchroman-2-carboxylic acid], the “Trolox Equivalent Antioxidant Capacity (TEAC)” value in data set [2] is listed as 1.00 mM.
The compound `O=C(OCCc1cccc(O)c1)C(F)(F)F` [Compound 9, 3-Hydroxyphenethyl trifluoroacetate] had a log partition coefficient (logP) in data set [1] of 1.96 ± 0.14. In addition, the “Trolox Equivalent Antioxidant Capacity (TEAC)” value in data set [2] is 0.38 mM. In addition, the activity at 10 µM in data set [3] stood at 25%; in data set [4], 28%.

The values are drawn from publication PMC6017616, “Synthesis and Evaluation of the Antioxidant Activity of Lipophilic Phenethyl Trifluoroacetate Esters by In Vitro ABTS, DPPH and in Cell-Culture DCF Assays” (Molecules : A Journal of Synthetic Chemistry and Natural …, 2018).
